Laboratory results: patent US7803910B2, “Soluble CD164 polypeptides” (Merck Serono S.A., priority 2005, dated 2010)

Assays:
C3H mice = experiment: Concanavalin A-induced hepatitis in mice; format: in vivo; conditions: 0.3 mg/kg, sc
Excerpt: Several sCD164 variants have been shown in vitro to inhibit secretion of certain cytokines by ConA-stimulated human peripheral blood mononuclear cells (PBMC), see Examples 2 and 3 above. Since cytokines play a crucial role in T-cell induced ConA induced liver hepatitis (Seino et al. 2001, Kusters, 1996; Toyonaga et al. 1994), the present model was used to further test the sCD164 variants.
Eighteen hours later, the animals were sacrificed and the blood was sampled. Serum levels of transaminases (alanine transaminase (ALAT), aspartate aminotransferase (ASAT)) were determined in serum using a clinical analyzer (Hitachi). Dexamethasone (0.3 mg/kg, sc) was used as reference.

[1] = tested on: LPS-induced TNF-α release; experiment: LPS induced TNF-α release animal model (Example 10); format: in vivo, C3H/HeN mice; conditions: 0.1 mg/kg, sc, 15 minutes prior to LPS; plasma 90 minutes after LPS; p<0.001
Experimental: LPS(O111:B4; SIGMA) is injected (0.3 mg/kg, ip) in C3H/HeN mice (Charles River, France). Ninety minutes later blood is sampled and plasma TNF-α is determined using an ELISA kit (R&D). The CD164 variant to be tested and dexamethasone are diluted in PBS and injected (Sf-CD164 at 0.03, 0.1 and 0.3 mg/kg, iv; or dexamethasone at 0.1 mg/kg, sc) 15 minutes prior to LPS administration.

[2] = tested on: peritoneal recruitment of macrophages; experiment: Thioglycollate-induced leukocyte peritoneal recruitment assay; format: in vivo, C3H mice; conditions: 1 mg/kg
Experimental: The effect of a sCD164 variant on immune cells recruitment was tested using the thioglycollate-induced leukocyte peritoneal recruitment assay. In this example the capacity of ssCD164-Fc (SEQ ID NO: 16) to decrease monocytes/macrophage recruitment was evaluated.
Forty-eight hours after the challenge, the animals were sacrificed and the lavage of the peritoneal cavity was conducted using 2×5 ml PBS-1 mM EDTA (+4° C.). After centrifugation (10 min at 3000 rpm), the pellet was resuspended in 1 ml PBS. The peritoneal cells were counted using a Beckman/Coulter counter. Dexamethasone (1 mg/kg), the anti-inflammatory compound was used as reference positive control.

Balb/c mice = experiment: K/BxN serum transfer model of arthritis; format: in vivo; conditions: 10 mg/kg sc once daily, 3 days per week
Experimental: This is a passive model of arthritis, induced by serum transfer of K/B×N mice (spontaneously develop arthritis) to naïve mice. This model depends on macrophages and neutrophils. Inflammatory cytokines such as TNFα and IL-1β play an important role in the development of the disease.
Eight week old Balb/c mice (Charles River) received by iv route 150 μl of K/B×N serum (Charles McKay, Australia), containing high level of auto-antibodies against glucose-6-phosphate isomerase. They evolved severe arthritis assessed with a clinical score (0-12) evaluating the presence of swelling, erythema, edema, joint rigidity and ankylosis. The final score was the sum of scores on individual paws. The swelling of ankle, fore paw and hind paw was measure using a caliper. The clinical score and the swelling were determined every day. Fourteen days after the induction of the disease blood was sampled to determine osteocalcin and the legs were removed and fixed in formalin for histology.
Enbrel® (10 mg/kg, sc, once daily, 3 days a week) was used as reference compound.

female mice (Balb/c) = experiment: Dextran Sodium Sulfate-induced ulcerative colitis model; format: in vivo
Experimental: The DSS model of colitis mimics some aspects of the human affection such as macrophage infiltration and up regulation of inflammatory cytokines (i.e. TNFα, IL-1p, IL-6) in the colon mucosa.
Ulcerative colitis (UC) was induced in female mice (Balb/c, 20-22 g, Elevage Janvier) by Dextran Sodium Sulfate (DSS 4%) administered in drinking water (oral route). The mice had free access to DSS during 7 days. Body weight was determined daily. The severity of the UC was assessed by a clinical score estimating the constituency of the stool (0=firm, 1=loose, 2=diarrhea) and the presence of blood (0=no blood, 1=occult blood, 2=gross rectal bleeding). Seven days after the induction of the disease, the animals were sacrificed. The length and the weight of the colon were determined and the ratio Weight/Length/100 g body weight was calculated. The spleen weight was also determined. Blood was sampled to determine serum amyloid protein (SAA) using a specific ELISA.
Test substances or vehicle (PBS/0.02% BSA) was administered at days 3, 4, 5 and 6 after the induction of the UC. Enbrel® (1 mg/kg, sc) was used as reference compound. Three studies were performed as per the following table:
In Study 3, the content of IL-1β in the colon was also measured.

[3] = Study 1, reference 1 mg/kg, ip (so in the source)

## C[C@@H]1C[C@H]2[C@@H]3CCC4=CC(=O)C=C[C@]4(C)[C@@]3(F)[C@@H](O)C[C@]2(C)[C@@]1(O)C(=O)CO [Dexamethasone, reference compound]
C3H mice
  reduction of the level of serum transaminases: 96%
[1]
  inhibition of LPS-induced TNF-α release: 72%
[2]; iv
  reduction of peritoneal recruitment of macrophages: 94%
[2]; sc
  reduction of peritoneal recruitment of macrophages: 61%

## Enbrel® [reference compound]
Balb/c mice; Study 1
  decrease of clinical score: 25%
  decrease of paw swelling: 36%
  decrease of serum osteocalcin: 86%
Balb/c mice; Study 2
  decrease of clinical score: 31%
  decrease of paw swelling: 38%
  decrease of serum osteocalcin: 64%
Female mice (Balb/c); [3]
  body weight loss: not prevented
  colon reduction, length: −24%
  colon reduction, ratio weight/length: −29%
  increase in serum amyloid protein A: −37%
  splenomegaly: not prevented
Female mice (Balb/c); Study 1, reference 1 mg/kg, ip (so in the source), day 6
  clinical score: −23%
Female mice (Balb/c); Study 2, 1 mg/kg, sc
  colon reduction, length: −17%
  colon reduction, ratio weight/length: −31%
  increase in serum amyloid protein A: −36%
  splenomegaly: not improved
Female mice (Balb/c); Study 2, 1 mg/kg, sc, day 5
  clinical score: −21%
Female mice (Balb/c); Study 3, 1 mg/kg, sc
  colon reduction, length: −29%
  colon reduction, ratio weight/length: −33%
  content of IL-1β in colon: trended to reduce
  serum amyloid A protein: trended to reduce
  splenomegaly: −27%
Female mice (Balb/c); Study 3, 1 mg/kg, sc, day 5
  body weight loss: −83%
  clinical score: −38%
Female mice (Balb/c); Study 3, 1 mg/kg, sc, day 7
  clinical score: −30%
